According to patent publication US10865203B2, “Ligands selective to alpha 6 subunit-containing GABAA receptors and their methods of use” (UWM Research Foundation, Inc., priority 2015, dated 2020):
Entries after “also recorded” stand apart in the source; their conditions may differ. Like-named read-outs stand apart in the source and are kept apart here.

What was measured:
α1,4,6β3δ receptors = test: Electrophysiology in Xenopus oocytes, delta-containing receptors; assay type: cell-based, rat
Method: Mature female Xenopus laevis (Nasco, Fort Atkinson, Wis., USA) were anaesthetized in a bath of ice-cold 0.17% Tricain (Ethyl-m-aminobenzoat, Sigma-Aldrich, St. Louis, Mo., USA) before decapitation and transfer of the frog's ovary to ND96 medium (96 mM NaCl, 2 mM KCl, 1 mM MgCl2, 5 mM HEPES; pH 7.5). Following incubation in 1 mg/mL collagenase (Sigma-Aldrich, St. Louis, Mo., USA) for 30 min, stage 5 to 6 oocytes were singled out of the ovary and defolliculated using a platinum wire loop. Oocytes were stored and incubated at 18° C. in NDE medium (96 mM NaCl, 2 mM KCl, 1 mM MgCl2, 5 mM HEPES, 1.8 mM CaCl2; pH 7.5) that was supplemented with 100 U per mL-1 penicillin, 100 μg per mL-1 streptomycin and 2.5 mM pyruvate. Oocytes were injected with an aqueous solution of mRNA. A total of 2.5 ng of mRNA per oocyte was injected. Subunit ratio was 1:1:5 for αxβγ2 (x=1, 2, 3, 5) and 3:1:5 for α4/6β3γ2 and αβδ receptors. Injected oocytes were incubated for at least 36 h before electrophysiological recordings. Oocytes were placed on a nylon-grid in a bath of NDE medium. For current measurements, the oocytes were impaled with two microelectrodes (2-3MΩ), which were filled with 2 M KCl. The oocytes were constantly washed by a flow of 6 mL per min-1 NDE that could be switched to NDE containing GABA and/or drugs. […] All recordings were performed at room temperature at a holding potential of −60 mV using a Warner OC-725C TEV (Warner Instrument, Hamden, Conn., USA) or a Dagan CA-1B Oocyte Clamp or a Dagan TEV-200A TEV (Dagan Corporation, Mineapolis, Minn., USA). Data were digitized using a Digidata 1322A or 1550 data acquisition system (Axon Instruments, Union City, Calif., USA), recorded using Clampex 10.5 software (Molecular Devices, Sunnyvale, Calif., USA), and analyzed using Clampfit 10.5 and GraphPad Prism 6.0 (La Jolla, Calif., USA) software. Concentration-response data were fitted using the Hill equation. Data are given as mean±SEM from at least three oocytes of two batches.
For selected test compounds full dose response curves were recorded in α1-6β3γ2 receptors. For selected compounds, dose response curves in additional receptor subtypes (α1, 4, 6β3δ, α6β1, 2γ2, α1-6β3) were also obtained. For a wider panel of compounds, a two point screening pharmacology was obtained at 1 and 10 μM compound concentrations.

[1] = test system: binary αxβ3 (x=1, 2, 3, 5) receptors; test: Electrophysiology in Xenopus oocytes, binary receptors; assay type: cell-based, rat
Method: Mature female Xenopus laevis (Nasco, Fort Atkinson, Wis., USA) were anaesthetized in a bath of ice-cold 0.17% Tricain (Ethyl-m-aminobenzoat, Sigma-Aldrich, St. Louis, Mo., USA) before decapitation and transfer of the frog's ovary to ND96 medium (96 mM NaCl, 2 mM KCl, 1 mM MgCl2, 5 mM HEPES; pH 7.5). Following incubation in 1 mg/mL collagenase (Sigma-Aldrich, St. Louis, Mo., USA) for 30 min, stage 5 to 6 oocytes were singled out of the ovary and defolliculated using a platinum wire loop. Oocytes were stored and incubated at 18° C. in NDE medium (96 mM NaCl, 2 mM KCl, 1 mM MgCl2, 5 mM HEPES, 1.8 mM CaCl2; pH 7.5) that was supplemented with 100 U per mL-1 penicillin, 100 μg per mL-1 streptomycin and 2.5 mM pyruvate. Oocytes were injected with an aqueous solution of mRNA. A total of 2.5 ng of mRNA per oocyte was injected. Subunit ratio was 1:1:5 for αxβγ2 (x=1, 2, 3, 5) and 3:1:5 for α4/6β3γ2 and αβδ receptors. Injected oocytes were incubated for at least 36 h before electrophysiological recordings. Oocytes were placed on a nylon-grid in a bath of NDE medium. For current measurements, the oocytes were impaled with two microelectrodes (2-3MΩ), which were filled with 2 M KCl. The oocytes were constantly washed by a flow of 6 mL per min-1 NDE that could be switched to NDE containing GABA and/or drugs. Drugs were diluted into NDE from DMSO solutions resulting in a final concentration of 0.1% DMSO. Maximum currents measured in mRNA injected oocytes were in the microampere range for all receptor subtypes. […] Data were digitized using a Digidata 1322A or 1550 data acquisition system (Axon Instruments, Union City, Calif., USA), recorded using Clampex 10.5 software (Molecular Devices, Sunnyvale, Calif., USA), and analyzed using Clampfit 10.5 and GraphPad Prism 6.0 (La Jolla, Calif., USA) software. […]
For selected test compounds full dose response curves were recorded in α1-6β3γ2 receptors. […]

[2] = Pharmacokinetic study in rats, plasma and brain; conditions: for total concentration in rat brain tissue: nanoemulsion or suspension; for half-life: male, Wistar, rat, ip, 10 mg/kg
From the text: Five pharmacokinetic studies have been performed; four in male Wistar rats and one in male Swiss mice. […] In a separate in vitro experiment, the rapid equilibrium dialysis assay was used to determine free fraction of DK-I-56-1 in rat plasma and brain tissue.

| SMILES | α6 preference among α1,4,6β3δ receptors (α1,4,6β3δ receptors) | efficacy in binary αxβ3 receptors [1] | α6 preference among α1,4,6β3δ receptors (α1,4,6β3δ receptors; listed as compound 6) | total concentration in rat brain tissue ([2]; 10 mg/kg i.p.) | time of maximum concentration in rat brain tissue ([2]; 10 mg/kg i.p.) [h] | free concentrations in rat brain tissue ([2]; 10 mg/kg i.p., estimated from free fraction) [nM] | half-life ([2]; brain) [h] | half-life ([2]; in vivo) [h] |
| --- | --- | --- | --- | --- | --- | --- | --- | --- |
| COc1cccc(-n2nc3c4cc(Cl)ccc4[nH]cc-3c2=O)c1 [LAU 159, 8-Chloro-2-(3-methoxyphenyl)-2,5-dihydro-3H-pyrazolo[4,3-c]quinolin-3-one] | preferentially modulate the α6β3δ receptor; also recorded: α6 preference | low efficacy | – | – | – | – | – | – |
| COc1ccc(-n2nc3c4ccc(Br)cc4[nH]cc-3c2=O)cc1 [LAU 463, 7-Bromo-2-(4-methoxyphenyl)-2,5-dihydro-3H-pyrazolo[4,3-c]quinolin-3-one] | α6 preference | low efficacy | – | – | – | – | – | – |
| COc1ccc(-n2nc3c4ccc(OC)cc4[nH]cc-3c2=O)cc1 [Compound 6, 7-Methoxy-2-(4-methoxyphenyl)-2,5-dihydro-3H-pyrazolo[4,3-c]quinolin-3-one] | α6 preference | low efficacy | preferentially modulate the α6β3δ receptor | high submicromolar concentrations | – | – | – | – |
| [2H]C([2H])([2H])Oc1ccc(-n2nc3c4ccc(OC)cc4[nH]cc-3c2=O)cc1 [DK-I-56-1, 7-Methoxy-2-(4-methoxy-d3-phenyl)-2,5-dihydro-3H-pyrazolo[4,3-c]quinolin-3-one] | – | – | – | micromolar concentrations | 3 | ≥ 100 | ~4 | – |
| [2H]C([2H])([2H])Oc1ccc2c3nn(-c4ccc(OC)nc4)c(=O)c-3c[nH]c2c1 [DK-I-86-1, 7-Methoxy-d3-2-(6-methoxypyridin-3-yl)-2,5-dihydro-3H-pyrazolo[4,3-c]quinolin-3-one] | – | – | – | high submicromolar concentrations | – | – | – | ~9 |
